Results as given in patent US9034895B2, “Composition and methods for treating glioblastoma” (University of Washington Through its Center for …, priority 2010, dated 2015).

Assays:
U251, A172 and GBM8 = assay: Toxic profile in human astrocytoma cell lines; type: cell-based; details: range over the three cell lines (FIG. 4), read-out: potency at killing human astrocytoma cell lines U251, A172 and GBM8
Description: Cells were plated media supplemented with 10% serum in 96-well plates (10^4 cells per wellI; 0.1 ml per well). Once they reached ˜70% confluence, they were rinsed with PBS and kept for an additional 24 hrs in media supplemented with 1% serum, at which time drugs or vehicle (DMSO, 0.1%, prepared in 10 μl serum-free media) were directly added to each well. After 3 days, cell viability was assessed using the Cell Proliferation Reagent WST-1 (Roche, Indianapolis, Ind.). Briefly, WST-1 reagent (10 μl) was added to each well for 3 hrs at 37° C. with 5% CO2 and WST-1 products were read at 450 nm using Packard SpectraCount™.
(§1) JWH-451 was tested for toxicity in cells expressing GPR124.

[1] = system: endothelial cell line bEnd.3; assay: Toxic profile in endothelial cell line; type: cell-based
Description: as §1

U251 flank tumors = U251 flank tumors in nude mice, tumor growth; type: in vivo
Description: Nude mice that had been implanted with U251 flank tumors were treated with a daily regimen of JWH-451. This experiment was performed as follow: 10^6 U251 cells were implanted in the flanks of nude mice and the tumor was allowed to grow until it reached a size of 250 mm^3, at which point the mice were enrolled in daily treatment. Tumor growth was then measured and expressed as a function of initial tumor size.

DBT tumors = assay: Lymphocyte and brain macrophage invasion of DBT tumors implanted in mouse brain; type: in vivo, mice (BALB/c); details: daily i.p. (40 mg/Kg per FIG. 7), tumors implanted three weeks in mouse brain
Description: Effect of JWH-451 on the immune cell invasion of syngenic mouse model of astrocytomas tumors (mouse astrocytoma cell implanted into the brain of wild type mice hosts with intact immune systems) was measured. Briefly, mice (BALB/c, 8 week-old, male, Charles River) were used for this study and housed under specific-pathogen-free conditions for at least one week prior to surgery. Twenty-four hours before surgery, 5×10^6 DBT cells were harvested in 10 ml of DMEM supplemented with 10% heat-inactivated FBS, 10 U/ml penicillin and 10 μg/ml streptomycin and seeded in T75 cm^2 cell culture flasks (one flask per mouse). Just before surgery, cells from one flask were detached with trypsin-EDTA, recovered in DMEM supplemented with 10% heat-inactivated FBS, centrifuged/rinsed twice with MEM (serum free) and resuspended at 10^6 cells/u1 of ice-cold MEM (ready for injection). Mice were anesthetized with ketamine/xylazine (given […] i.p., 130 mg/kg ketamine/8.8 mg/kg xylazine) and placed in a stereotactic instrument (David Kopf Instruments, CA) on an isothermal pad (Deltaphase®, Braintree Scientific, Inc, Braintree, Mass.). After midline incision of the scalp, a 25-G needle was used to perform a craniostomy at 2 mm cranial from bregma and 1.5 mm left lateral. […]

`CCn1c(C)c(C(=O)c2ccc(C)c3ccccc23)c2ccccc21` [JWH-451, 1-Ethyl-2-methyl-3-(4-methyl-1-napthoyl)indole] was tested, and the EC50 (U251, A172 and GBM8) was 2 to 4 µM, the “viability of endothelial cell line bEnd.3” value [1] was “did not affect the viability” and the “tumor growth in vivo” value (U251 flank tumors; daily i.p. injection 15 mg/Kg, U251 flank tumors, nude mice) was “significantly reduced tumor growth”. The “growth of U251 gliomas implanted in the flanks of nude mice” value (U251 flank tumors; daily i.p. injections 5 mg/Kg (FIG. 5 legend), compared to controls) was “inhibits the growth”, the “brain macrophage density / number invading DBT tumors” value (DBT tumors) was “two fold increase” and the “lymphocyte density / number invading DBT tumors” value (DBT tumors) was “two fold increase”.
